Assay results published in the supplement of paper PMC10307832.

Key:
Assay in all cases: relative viability (nuclei count vs DMSO), 5 days (fraction); higher = more cells survive
[1] = compound: CN(C)CC1=CC(=CC=C1)N=C(C2=CC=CC=C2)C3=C(NC4=C3C=CC(=C4)C(=O)N(C)C)O + NC(=O)Nc1cc(-c2cccc(F)c2)sc1C(=O)N[C@H]1CCCNC1 [AZD7762] (partner 0.2 µM)
Method in brief: (§1)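 For relative viability, nuclei counts in treated wells were divided by those in vehicle wells. Lung cancer cell lines had been pin-tool dosed in 1536-well plates the day after seeding and cultured for 5 days, then fixed and stained in one step (final 0.05% Triton X-100, 1% formaldehyde, 1 ug/ml Hoechst) and imaged at 4×. Doses were one drug alone or a fixed anchor-drug dose plus five library-drug doses (not always all listed) in √10 steps, and values are duplicate-plate medians.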

[2] = compound: CN(C)CC1=CC(=CC=C1)N=C(C2=CC=CC=C2)C3=C(NC4=C3C=CC(=C4)C(=O)N(C)C)O + Nc1ncn([C@H]2C[C@H](O)[C@@H](CO)O2)c(=O)n1 [Decitabine] (partner 2 µM)
Method in brief: as §1

[3] = compound: CN(C)CC1=CC(=CC=C1)N=C(C2=CC=CC=C2)C3=C(NC4=C3C=CC(=C4)C(=O)N(C)C)O + CS(=O)(=O)CCNCc1ccc(-c2ccc3ncnc(Nc4ccc(OCc5cccc(F)c5)c(Cl)c4)c3c2)o1 [Lapatinib] (partner 2 µM)
Method in brief: as §1

[4] = compound: CN(C)CC1=CC(=CC=C1)N=C(C2=CC=CC=C2)C3=C(NC4=C3C=CC(=C4)C(=O)N(C)C)O + O=C(c1cc(Cc2n[nH]c(=O)c3ccccc23)ccc1F)N1CCN(C(=O)C2CC2)CC1 [Olaparib] (partner 8 µM)
Method in brief: as §1

Row | Cell Line | relative viability ([1]; first compound 0.08 µM) | relative viability ([1]; first compound 0.253 µM) | relative viability ([1]; first compound 2.53 µM) | relative viability ([1]; first compound 8 µM) | relative viability ([2]; first compound 0.08 µM) | relative viability ([2]; first compound 0.253 µM) | relative viability ([2]; first compound 2.53 µM) | relative viability ([2]; first compound 8 µM) | relative viability ([3]; first compound 0.08 µM) | relative viability ([3]; first compound 0.253 µM) | relative viability ([3]; first compound 0.8 µM) | relative viability ([3]; first compound 2.53 µM) | relative viability ([3]; first compound 8 µM) | relative viability ([4]; first compound 0.08 µM) | relative viability ([4]; first compound 0.253 µM) | relative viability ([4]; first compound 2.53 µM) | relative viability ([4]; first compound 8 µM) | relative viability ([1]; first compound 0.8 µM) | relative viability ([2]; first compound 0.8 µM) | relative viability ([4]; first compound 0.8 µM)
1 | EKVX | 0.745 | 0.727 | 0.726 | 0.696 | 0.41 | 0.321 | 0.36 | 0.34 | 0.196 | 0.294 | 0.205 | 0.224 | 0.23 | 0.83 | 0.781 | 0.837 | 0.862 | – | – | –
2 | EMC-BAC-2 | 1.23 | 1.15 | 1.06 | 1.16 | 1.15 | 0.996 | 0.817 | 1.01 | 0.927 | 0.914 | 0.953 | 0.898 | 0.878 | 0.507 | 0.526 | 0.449 | 0.507 | 1.27 | 0.992 | 0.543
3 | EPLC-272H | 0.229 | 0.252 | 0.302 | 0.214 | 0.39 | 0.422 | 0.471 | 0.383 | 0.927 | 0.996 | 0.845 | 0.955 | 0.989 | 0.696 | 0.888 | 0.664 | 0.583 | 0.203 | 0.297 | 0.689
4 | H3255 | 1.08 | 0.85 | 0.967 | 0.942 | 0.599 | 0.605 | 0.586 | 0.593 | 0.25 | 0.31 | 0.235 | 0.222 | 0.292 | 0.577 | 0.57 | 0.574 | 0.608 | 0.842 | – | 0.598
5 | HARA | 0.296 | 0.351 | 0.258 | 0.324 | 0.452 | 0.595 | 0.554 | 0.443 | 0.794 | 0.842 | 0.686 | 0.803 | 0.744 | 0.622 | 1.03 | 0.758 | 0.967 | 0.155 | 0.537 | 0.762
6 | HCC-15 | 1.44 | 1.2 | 1.4 | 1.31 | 0.707 | 0.636 | 0.63 | 0.617 | 0.891 | 0.821 | 0.947 | 0.776 | 0.924 | 0.681 | 0.737 | 0.561 | 0.785 | 1.24 | 0.784 | 0.798
7 | HCC-44 | 1 | 0.987 | 0.946 | 1.04 | 0.989 | 0.94 | 0.919 | 0.968 | 0.953 | 1.03 | 0.986 | 0.937 | 1.03 | 0.975 | 0.995 | 0.904 | 1.04 | 1.03 | 0.941 | 0.967
8 | HCC-78 | 0.464 | 0.772 | 0.639 | 0.831 | 0.564 | 0.716 | 0.681 | 0.665 | 0.785 | 1.48 | 0.722 | 0.707 | 0.741 | 0.599 | 0.816 | 0.742 | 0.862 | 0.568 | 0.766 | 0.776
